Measured values taken from US8541189B2, “Method for measuring the plasmine activity of microparticles present in a sample of blood or a blood component” (Institut National de la Sante et de la Recherche Medicale …, priority 2007, dated 2013).

Target: plasminogen (Homo sapiens, UniProt P00747)
Assay: Plasmin-generation test, EMPs in suspension
Assay type: biochemical
Conditions: 5 · 10^4 EMP/50 μL + EACA; 1 μM plasminogen; 0.75 mM CBS0065
Experimental: In the round-bottomed wells of 96-well plates made of PVC, different EMP concentrations in suspension in PBS, to which 0.8% bovine serum albumin (PBSA) had been added, were incubated with 50 μl of a mixture of 1 μM plasminogen and (methyl-malonyl)-hydroxypropylarginine-p-nitroanilide (CBS0065, Stag°, Asniéres, France), chromogenic substrate selective for plasmin, at 0.75 mM.
An identical volume of supernatant from the last washing of the EMPs was used as a control.
The microplate was placed in the microplate readers and the kinetics of the appearance of the plasmin were monitored for 9 hours using a spectrophotometer suitable for reading multiwell plates (MX5000. Dynex) at 37° C. by measurement of the modifications of the absorbance at 405 nm produced by the release of the p-nitroaniline as a function of time.

Sequence of plasminogen (P00747 20-810 limits assumed, species assumed): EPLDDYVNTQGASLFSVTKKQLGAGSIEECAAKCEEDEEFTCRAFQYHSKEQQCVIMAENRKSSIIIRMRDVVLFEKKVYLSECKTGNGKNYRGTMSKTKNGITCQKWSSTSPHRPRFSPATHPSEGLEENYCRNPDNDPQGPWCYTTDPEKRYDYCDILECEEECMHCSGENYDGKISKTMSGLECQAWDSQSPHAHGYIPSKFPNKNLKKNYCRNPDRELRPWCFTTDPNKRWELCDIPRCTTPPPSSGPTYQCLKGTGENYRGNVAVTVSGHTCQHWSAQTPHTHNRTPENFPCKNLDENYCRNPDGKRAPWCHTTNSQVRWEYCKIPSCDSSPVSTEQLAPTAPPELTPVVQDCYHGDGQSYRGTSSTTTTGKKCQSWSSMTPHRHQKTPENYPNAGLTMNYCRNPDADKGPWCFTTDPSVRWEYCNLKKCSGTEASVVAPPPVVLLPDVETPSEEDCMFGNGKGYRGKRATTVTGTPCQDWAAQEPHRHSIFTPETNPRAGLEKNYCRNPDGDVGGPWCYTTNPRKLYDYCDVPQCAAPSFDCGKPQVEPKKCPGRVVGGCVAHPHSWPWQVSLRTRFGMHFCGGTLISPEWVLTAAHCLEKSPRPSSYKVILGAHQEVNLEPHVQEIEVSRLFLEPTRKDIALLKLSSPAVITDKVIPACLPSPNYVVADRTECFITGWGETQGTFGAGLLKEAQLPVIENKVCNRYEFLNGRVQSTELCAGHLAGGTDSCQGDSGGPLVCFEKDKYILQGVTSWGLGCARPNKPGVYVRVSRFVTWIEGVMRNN

A405 nm/min: 0.6 A405 nm/min
Compound: NCCCCCC(=O)O [EACA, ε-aminocaproic acid]
